Assay results as given in patent publication US20220363671A1, “GLUE DEGRADERS AND METHODS OF USE THEREOF” (NOVARTIS AG, priority 2019, published 2022).

Tests used:
Format in all cases: cell-based
IKZF1 = target: T1, IKZF1 (Homo sapiens, UniProt Q13422+Q96SW2); assay: Prolabel quantification of IKZF1 protein levels in GripTite 293 MSR cell line; settings: Pro-label assay; for percent IKZF1 protein reduction at 10 µM: 24 h; for DC50: Ikaros degradation, read-out: IKZF1 EC50
T1 construct: expressed in transfected cells
T1 sequence (Q13422 whole entry, species assumed): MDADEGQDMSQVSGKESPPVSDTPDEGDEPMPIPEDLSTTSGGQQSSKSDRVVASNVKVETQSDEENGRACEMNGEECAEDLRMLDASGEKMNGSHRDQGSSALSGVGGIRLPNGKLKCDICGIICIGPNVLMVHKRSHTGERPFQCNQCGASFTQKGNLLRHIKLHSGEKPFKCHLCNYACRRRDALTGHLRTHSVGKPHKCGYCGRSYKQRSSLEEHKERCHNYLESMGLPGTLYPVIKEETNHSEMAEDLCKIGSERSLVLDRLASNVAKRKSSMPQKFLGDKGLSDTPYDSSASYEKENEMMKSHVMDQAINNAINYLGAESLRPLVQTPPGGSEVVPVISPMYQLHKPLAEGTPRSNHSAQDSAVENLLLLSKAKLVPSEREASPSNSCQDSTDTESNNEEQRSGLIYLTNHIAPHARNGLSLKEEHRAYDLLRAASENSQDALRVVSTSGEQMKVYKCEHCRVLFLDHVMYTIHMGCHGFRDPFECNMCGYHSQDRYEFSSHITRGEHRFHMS
T1 sequence (Q96SW2 whole entry, species assumed): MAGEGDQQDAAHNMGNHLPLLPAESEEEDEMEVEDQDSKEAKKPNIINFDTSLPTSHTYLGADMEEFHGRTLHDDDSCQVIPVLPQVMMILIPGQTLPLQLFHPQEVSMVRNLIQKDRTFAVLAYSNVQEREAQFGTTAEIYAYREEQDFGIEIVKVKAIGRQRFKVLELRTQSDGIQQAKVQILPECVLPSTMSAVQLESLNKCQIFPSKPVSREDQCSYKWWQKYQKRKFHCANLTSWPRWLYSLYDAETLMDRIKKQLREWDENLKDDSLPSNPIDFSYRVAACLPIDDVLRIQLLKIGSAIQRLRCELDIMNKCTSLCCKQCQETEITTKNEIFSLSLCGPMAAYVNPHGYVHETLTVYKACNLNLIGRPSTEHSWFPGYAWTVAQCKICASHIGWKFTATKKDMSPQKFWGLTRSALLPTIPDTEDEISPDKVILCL
T1 sequence (Q16531 whole entry partner, species assumed): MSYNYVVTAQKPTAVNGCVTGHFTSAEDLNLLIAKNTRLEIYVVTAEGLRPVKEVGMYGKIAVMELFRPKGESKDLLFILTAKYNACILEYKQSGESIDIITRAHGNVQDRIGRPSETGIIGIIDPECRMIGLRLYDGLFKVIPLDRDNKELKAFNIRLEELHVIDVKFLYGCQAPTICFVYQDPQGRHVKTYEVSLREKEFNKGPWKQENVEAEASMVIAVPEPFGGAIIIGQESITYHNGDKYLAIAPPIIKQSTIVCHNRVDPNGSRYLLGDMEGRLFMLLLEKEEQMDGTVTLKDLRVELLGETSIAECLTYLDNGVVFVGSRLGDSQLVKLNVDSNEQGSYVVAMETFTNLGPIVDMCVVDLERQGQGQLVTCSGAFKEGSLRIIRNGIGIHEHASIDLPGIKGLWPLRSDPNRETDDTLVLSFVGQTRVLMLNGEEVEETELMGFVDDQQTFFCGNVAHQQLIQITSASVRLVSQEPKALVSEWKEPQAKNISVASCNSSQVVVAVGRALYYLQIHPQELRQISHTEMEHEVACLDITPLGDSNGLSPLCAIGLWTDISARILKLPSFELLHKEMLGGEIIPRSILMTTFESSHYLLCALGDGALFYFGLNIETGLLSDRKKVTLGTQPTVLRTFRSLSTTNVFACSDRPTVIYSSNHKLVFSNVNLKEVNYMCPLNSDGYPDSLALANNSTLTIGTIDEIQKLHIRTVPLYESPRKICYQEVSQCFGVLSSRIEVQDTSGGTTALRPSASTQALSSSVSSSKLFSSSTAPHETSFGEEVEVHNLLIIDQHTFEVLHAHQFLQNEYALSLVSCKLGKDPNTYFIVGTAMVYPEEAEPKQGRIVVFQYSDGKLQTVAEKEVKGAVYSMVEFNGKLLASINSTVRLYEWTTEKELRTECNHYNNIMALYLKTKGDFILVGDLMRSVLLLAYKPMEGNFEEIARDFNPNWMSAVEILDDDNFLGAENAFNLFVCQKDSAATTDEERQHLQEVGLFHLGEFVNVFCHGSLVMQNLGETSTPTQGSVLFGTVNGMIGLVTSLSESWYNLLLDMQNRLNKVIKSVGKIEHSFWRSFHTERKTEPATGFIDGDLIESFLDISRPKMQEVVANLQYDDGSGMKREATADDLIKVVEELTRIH
Source text: (§1) Example 18: Prolabel Quantification of IKZF1, GSPT1, or SALL4 protein levels in GripTite™ 293 MSR Cell line
(§2) The Prolabel system from DiscoverX was used to develop high-throughput and quantitative assays to measure changes in IKZF1, GSPT1, and SALL4 protein levels in response to compounds. The prolabel tag is derived from the alpha fragment of beta galactosidase and has the following protein sequence: mssnslavvlgrrdwenpgvtglnrlaahppfaswrnseeartdrpsqqlrsinge (SEQ ID NO. 1). The complementary fragment of beta-galactosidase (from DiscoverX), is added to the prolabel tag to form an active beta galactosidase enzyme whose activity can be precisely measured. In this way, the levels of a fusion protein with the prolabel tag can be quantified in cell lysates.
(§3) Lentiviral vectors, based on the Invitrogen pLenti6.2/V5 DEST backbone, were constructed that placed the prolabel tag upstream of IKZF1, GSPT1, or SALL4 and expressed the fusion protein from a CMV promoter.
(§4) To ensure moderate and consistent expression of the prolabel fusion proteins across all cells in the population, stable cell lines were constructed from cells expressing a single copy of the construct. Lentivirus packaged with the constructs was made using the Virapower kit from Invitrogen. Strongly adherent 293GT cell, GripTite 293 MSR cells from Thermo Fisher Scientific (Catalog number: R79507), were infected with the virus at low multiplicity of infection and selected by 5 μg/mL blasticidin for 2 weeks.
(§5) The levels of prolabel tagged fusion proteins in compound treated cell lines were measured as follows:
(§6) Day 1, Cells were diluted to 1.0×10^6 cells/mL in normal growth medium. 17.5 μL of cells were plated in each well of a solid white 384 well plate. Plates were incubated overnight in a 37° C. tissue culture incubator.
(§7) Day 2, Serial dilutions of compounds were made in 384 well plates from 10 mM stocks. 15 μL of DMSO was added to each well of a 384 well plate. In the first column, 15 μL of stock compound was added. The solution was mixed and 15 μL was transferred to the next column. This was repeated until 20 two-fold dilutions were prepared. 2.5 μL of the diluted compounds were transferred into 60 μL of cell culture medium in another 384 well plate, and mixed well. 2.5 μL of this mixture was added to the plated cells. The final DMSO concentration was 0.5% and the highest concentration of compound was 50 μM. Plates were incubated overnight (e.g., about 14 h, 18 h, or 24 h) in a 37° C. tissue culture incubator.
(§8) Day 3, Plates were removed from the incubator and allowed to equilibrate at room temperature for 30 minutes. Prolabel substrate (DiscoverX PathHunter Prolabel Detection Kit, User manual: 93-0180) was added as described by the manufacturers protocols. Plates were incubated at room temperature for three hours and luminescence was read using an Envision reader (Perkin Elmer) Data was analyzed and visualized using the Spotfire software package.

SALL4 = target: T2, SALL4 (Homo sapiens, UniProt Q96SW2+Q9UJQ4); assay: Prolabel quantification of SALL4 protein levels in GripTite 293 MSR cell line; settings: Pro-label assay
T2 construct: expressed in transfected cells
T2 sequence (Q9UJQ4 whole entry, species assumed): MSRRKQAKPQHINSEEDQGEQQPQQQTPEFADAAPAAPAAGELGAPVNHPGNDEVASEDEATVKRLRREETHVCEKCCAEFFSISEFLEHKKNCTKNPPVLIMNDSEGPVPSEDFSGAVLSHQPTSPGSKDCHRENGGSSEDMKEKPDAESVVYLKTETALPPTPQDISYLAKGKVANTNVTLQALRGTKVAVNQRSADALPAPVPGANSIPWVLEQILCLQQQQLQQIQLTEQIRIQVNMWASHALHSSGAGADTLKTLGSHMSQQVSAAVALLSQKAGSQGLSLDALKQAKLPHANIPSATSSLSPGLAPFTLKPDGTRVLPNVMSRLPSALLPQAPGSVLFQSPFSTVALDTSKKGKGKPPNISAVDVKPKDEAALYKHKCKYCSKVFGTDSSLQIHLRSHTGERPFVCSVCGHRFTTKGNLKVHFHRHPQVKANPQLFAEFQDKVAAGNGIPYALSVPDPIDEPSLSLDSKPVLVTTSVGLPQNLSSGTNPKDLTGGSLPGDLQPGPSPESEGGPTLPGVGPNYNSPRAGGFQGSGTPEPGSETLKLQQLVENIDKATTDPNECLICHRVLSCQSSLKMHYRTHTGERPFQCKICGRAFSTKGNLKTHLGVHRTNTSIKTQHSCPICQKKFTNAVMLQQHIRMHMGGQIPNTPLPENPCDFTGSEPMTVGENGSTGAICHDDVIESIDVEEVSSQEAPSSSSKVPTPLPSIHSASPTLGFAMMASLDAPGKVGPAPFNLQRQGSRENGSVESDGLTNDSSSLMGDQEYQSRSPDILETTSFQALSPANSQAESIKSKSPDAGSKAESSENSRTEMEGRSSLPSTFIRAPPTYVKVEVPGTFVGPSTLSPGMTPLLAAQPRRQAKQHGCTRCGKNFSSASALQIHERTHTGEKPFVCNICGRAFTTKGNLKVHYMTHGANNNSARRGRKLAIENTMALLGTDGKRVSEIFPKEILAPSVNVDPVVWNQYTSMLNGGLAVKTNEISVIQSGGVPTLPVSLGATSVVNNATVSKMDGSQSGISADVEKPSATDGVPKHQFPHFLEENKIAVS
T2 sequence (Q96SW2 whole entry, species assumed): as the sequence (Q96SW2 whole entry, species assumed) above
T2 sequence (Q16531 whole entry partner, species assumed): as the sequence (Q16531 whole entry partner, species assumed) above
Source text: as §1, §2
Lentiviral vectors, based on the Invitrogen pLenti6.2/V5 DEST backbone, were constructed that placed the prolabel tag upstream of IKZF1, GSPT1, or SALL4 and expressed the fusion protein from a CMV promoter. […]
The levels of prolabel tagged fusion proteins in compound treated cell lines were measured as follows: […]
as §8, with “Prolabel substrate (DiscoverX PathHunter Prolabel Detection Kit, User manual: 93-0180) was added as described by the manufacturers protocols.” left out

GSPT1 = target: T3, GSPT1 (Homo sapiens, UniProt P15170+Q96SW2); assay: Prolabel quantification of GSPT1 protein levels in GripTite 293 MSR cell line; settings: Pro-label assay; for DC50: GSPT1 degradation, read-out: GSPT1 EC50
T3 construct: expressed in transfected cells
T3 sequence (P15170 whole entry, species assumed): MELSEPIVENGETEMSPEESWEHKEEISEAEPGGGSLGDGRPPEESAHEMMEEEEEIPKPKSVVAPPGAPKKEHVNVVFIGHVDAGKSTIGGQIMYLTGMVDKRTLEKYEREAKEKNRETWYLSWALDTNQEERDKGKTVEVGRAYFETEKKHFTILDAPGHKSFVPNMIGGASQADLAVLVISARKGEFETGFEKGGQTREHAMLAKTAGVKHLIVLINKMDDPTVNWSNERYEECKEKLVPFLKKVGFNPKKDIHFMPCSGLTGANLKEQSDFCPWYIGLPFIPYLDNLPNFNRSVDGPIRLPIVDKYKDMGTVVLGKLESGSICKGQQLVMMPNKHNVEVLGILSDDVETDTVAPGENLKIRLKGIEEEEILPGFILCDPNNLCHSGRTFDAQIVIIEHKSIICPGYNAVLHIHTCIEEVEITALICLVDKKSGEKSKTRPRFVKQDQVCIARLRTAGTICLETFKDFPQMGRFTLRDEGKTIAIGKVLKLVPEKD
T3 sequence (Q96SW2 whole entry, species assumed): as the sequence (Q96SW2 whole entry, species assumed) above
T3 sequence (Q16531 whole entry partner, species assumed): as the sequence (Q16531 whole entry partner, species assumed) above
Source text: as §1, §2, §3, §4, §5, §6, §7
as §8, with “Prolabel substrate (DiscoverX PathHunter Prolabel Detection Kit, User manual: 93-0180) was added as described by the manufacturers protocols.” left out

Row | percent IKZF1 protein reduction at 10 µM (IKZF1) [%] | DC50 (IKZF1) [nM] | SALL4 % protein Reduction at 10 μM, 24 h (SALL4) [%] | GSPT1 % protein reduction at 10 μM, 24 h (GSPT1) [%] | DC50 (GSPT1) [nM] | Structure (SMILES)
1 | 75 | 57 |  |  |  | O=C1CCN(c2coc3ccccc23)C(=O)N1 [Compound I-1, 1-(Benzofuran-3-yl)dihydropyrimidine-2,4(1H,3H)-dione]
2 | > 90 | 60 |  |  |  | C#Cc1ccc2c(N3CCC(=O)NC3=O)coc2c1 [Compound I-2, 1-(6-Ethynylbenzofuran-3-yl)dihydropyrimidine-2,4(1H,3H)-dione]
3 | > 90 | 16 |  |  |  | Cc1ccc2occ(N3CCC(=O)NC3=O)c2c1 [Compound I-3, 1-(5-Methylbenzofuran-3-yl)dihydropyrimidine-2,4(1H,3H)-dione]
4 | 60 | 51 |  |  |  | O=C1CCN(c2coc3ccc(I)cc23)C(=O)N1 [Compound I-4, 1-(5-Iodobenzofuran-3-yl)dihydropyrimidine-2,4(1H,3H)-dione]
5 | > 90 | 130 | 60 |  |  | O=C1CCN(c2coc3cc(I)ccc23)C(=O)N1 [Compound I-5, 1-(6-Iodobenzofuran-3-yl)dihydropyrimidine-2,4(1H,3H)-dione]
6 | > 90 | 6 |  |  |  | O=C1CCN(c2cnn3cc(Cl)ccc23)C(=O)N1 [Compound I-7, 1-(6-Chloropyrazolo[1,5-a]pyridin-3-yl)dihydropyrimidine-2,4(1H,3H)-dione]
7 |  |  |  | 80 | 170 | CC(C)(C)c1ccc(C(=O)N2CC=C(c3ccn4c(N5CCC(=O)NC5=O)cnc4c3)CC2)cc1 [Compound I-9, 1-(7-(1-(4-(tert-Butyl)benzoyl)-1,2,3,6-tetrahydropyridin-4-yl)imidazo[1,2-a]pyridin-3-yl)dihydropyrimidine-2,4(1H,3H)-dione]
8 |  |  | 60 | 80 | 170 | O=C1CCN(c2cnc3ccc(C4CCN(Cc5ccccc5)CC4)cn23)C(=O)N1 [Compound I-10, 1-(6-(1-Benzylpiperidin-4-yl)imidazo[1,2-a]pyridin-3-yl)dihydropyrimidine-2,4(1H,3H)-dione]
9 | > 90 | 46 |  |  |  | CN(C)CC#Cc1ccc2c(N3CCC(=O)NC3=O)coc2c1 [Compound I-11, 1-(6-(3-(dimethylamino)prop-1-yn-1-yl)benzofuran-3-yl)dihydropyrimidine-2,4(1H,3H)-dione]
10 |  | > 20000 |  |  |  | O=C1CCN(c2coc3cc(C(=O)NCc4ccccc4)ccc23)C(=O)N1 [Compound I-12, N-benzyl-3-(2,4-dioxotetrahydropyrimidin-1(2H)-yl)benzofuran-6-carboxamide]
11 | > 90 | 6 |  |  |  | Cc1ccc2c(N3CCC(=O)NC3=O)noc2c1 [Compound I-13, 1-(6-Methylbenzo[d]isoxazol-3-yl)dihydropyrimidine-2,4(1H,3H)-dione]
12 | > 90 | 25 |  |  |  | O=C1CCN(c2noc3ccc(Cl)cc23)C(=O)N1 [Compound I-14, 1-(5-Chlorobenzo[d]isoxazol-3-yl)dihydropyrimidine-2,4(1H,3H)-dione]
13 | 80 | 630 |  |  |  | Cc1ccc(CCOc2ccc3c(N4CCC(=O)NC4=O)noc3c2)cc1 [Compound I-15, 1-(6-(4-Methylphenethoxy)benzo[d]isoxazol-3-yl)dihydropyrimidine-2,4(1H,3H)-dione]
14 |  | > 20000 |  |  |  | O=c1ccn(-c2cnc3ccc(C4CCN(Cc5ccccc5)CC4)cc3c2)c(=O)[nH]1 [Compound I-16, 1-(6-(1-benzylpiperidin-4-yl)quinolin-3-yl)pyrimidine-2,4(1H,3H)-dione]
15 | 40 |  |  |  |  | O=c1ccn(-c2cnc3cc(Br)ccn23)c(=O)[nH]1 [Compound I-18, 1-(7-Bromoimidazo[1,2-a]pyridin-3-yl)pyrimidine-2,4(1H,3H)-dione]

Row | Structure (SMILES) | percent IKZF1 protein reduction at 10 µM (IKZF1) [%] | DC50 (IKZF1) [nM] | SALL4 % protein Reduction at 10 μM, 24 h (SALL4) [%] | GSPT1 % protein reduction at 10 μM, 24 h (GSPT1) [%] | DC50 (GSPT1) [nM]
16 | O=C1CCN(c2coc3ccc(NC(=O)Oc4ccccc4)cc23)C(=O)N1 [Compound I-6, Phenyl (3-(2,4-dioxotetrahydropyrimidin-1(2H)-yl)benzofuran-5-yl)carbamate] | 75 | 120 |  |  | 
17 | O=C1CCN(c2cnc3cc(C4=CCN(Cc5ccccc5)CC4)ccn23)C(=O)N1 [Compound I-8, 1-(7-(1-Benzyl-1,2,3,6-tetrahydropyridin-4-yl)imidazo[1,2-a]pyridin-3-yl)dihydropyrimidine-2,4(1H,3H)-dione] | > 90 | 41 |  |  | 
18 | O=c1ccn(-c2cnc3cc(C4=CCN(Cc5ccccc5)CC4)ccn23)c(=O)[nH]1 [Compound I-17, 1-(7-(1-Benzyl-1,2,3,6-tetrahydropyridin-4-yl)imidazo[1,2-a]pyridin-3-yl)pyrimidine-2,4(1H,3H)-dione] | 80 | 430 |  |  | 
